Source: patent US20100331181A1, “Method for Protecting Cereals From Being Infected By Fungi” (BASF SE, priority 2008, published 2010)

Columns and labels:
Septoria tritici = test: Microtest (micro titer plate): activity against Septoria tritici; assay type: cell-based; conditions: 7 days after inoculation
Text: (§1) The active compounds were formulated separately as a stock solution having a concentration of 10000 ppm in dimethyl sulfoxide.
(§2) Epoxiconazole was used as commercial finished formulation and diluted with water to the stated concentration of the active compound.
B) 2. Activity against Septoria tritici
(§3) The stock solutions were mixed according to the ratio, pipetted onto a micro titer plate (MTP) and diluted with water to the stated concentrations. A spore suspension of Septoria tritici in an aqueous biomalt solution was then added. The plates were placed in a water vapor-saturated chamber at a temperature of 18° C. Using an absorption photometer, the MTPs were measured at 405 nm 7 days after the inoculation.
(§4) The measured parameters were compared to the growth of the active compound-free control variant (100%) and the fungus-free and active compound-free blank value to determine the relative growth in % of the pathogens in the respective active compounds. These percentages were converted into efficacies. An efficacy of 0 means that the growth level of the pathogens corresponds to that of the untreated control; an efficacy of 100 means that the pathogens were not growing.
(§5) The expected efficacies of active compound mixtures were determined using Colby's formula [R. S. Colby, “Calculating synergistic and antagonistic responses of herbicide combinations”, Weeds 15, 20-22 (1967)] and compared with the observed efficacies.

Rhizoctonia solani = test: Microtest (micro titer plate): activity against Rhizoctonia solani; assay type: cell-based; conditions: 7 days after inoculation
Text: as §1, §2
B) 1. Activity against Rhizoctonia solani
as §3, §4, §5

Puccinia recondita = test: Greenhouse: preventative control of brown rust on wheat; assay type: in vivo; conditions: 0.25 ppm, wheat seedlings sprayed 1 day before inoculation, % of untreated control
Procedure: The spray solutions were prepared in several steps:
The stock solution were prepared: a mixture of acetone and/or dimethylsulfoxide and the wetting agent/emulsifier Wettol®, which is based on ethoxylated alkylphenoles, in a relation (volume) solvent-emulsifier of 99 to 1 was added to 25 mg of the compound to give a total of 10 ml.
Water was then added to total volume of 100 ml.
This stock solution was diluted with the described solvent-emulsifier-water mixture to the given concentration.
The product epoxiconazole was used as commercial finished formulation and diluted with water to the stated concentration of the active compound.
Preventative Control of Brown Rust on Wheat Caused by Puccinia recondite
The first two developed leaves of pot-grown wheat seedling were sprayed to run-off with an aqueous suspension, containing the concentration of active ingredient or their mixture as described below. The next day the plants were inoculated with spores of Puccinia recondita. To ensure the success the artificial inoculation, the plants were transferred to a humid chamber without light and a relative humidity of 95 to 99% and 20 to 22 °C. for 24 h. Then the trial plants were cultivated for 6 days in a greenhouse chamber at 22-26° C. and a relative humidity between 65 and 70%. The extent of fungal attack on the leaves was visually assessed as % diseased leaf area. […]
as §5
The visually determined percentages of infected leaf areas were converted into efficacies in % of the untreated control.
The efficacy (E) is calculated as follows using Abbot's formula: […]
The expected efficacies of active compound combinations were determined using Colby's formula (Colby, S. R. “Calculating synergistic and antagonistic responses of herbicide combinations”, Weeds, 15, pp. 20-22, 1967) and compared with the observed efficacies. […]

`Cc1nn(C)c(F)c1C(=O)Nc1ccccc1C(C)CC(C)C` (stereo not drawn) [Compound (II), N-[2-(1,3-dimethylbutyl)-phenyl]-1,3-dimethyl-5-fluor-1H-pyrazole-4-carboxamide] was tested, and the Observed efficacy (Septoria tritici; 0.004 ppm) was 0%.
`Cn1cc(C(=O)Nc2ccc(F)cc2-c2ccc(Cl)c(Cl)c2)c(C(F)F)n1` [Bixafen, N-(3′,4′-dichloro-5-fluorobiphenyl-2-yl)-3-(difluoromethyl)-1-methylpyrazole-4-carboxamide] gave an Observed efficacy (Rhizoctonia solani; 0.001 ppm) of 0%, an Observed efficacy (Rhizoctonia solani; 0.004 ppm) of 7% and an Observed efficacy (Puccinia recondita) of 0%.
With `Fc1ccc([C@]2(Cn3cncn3)O[C@H]2c2ccccc2Cl)cc1` (racemic) [Epoxiconazole, epoxiconazole] the Observed efficacy (Rhizoctonia solani; 0.004 ppm) was 0%.
`CC1(C)CCC(Cc2ccc(Cl)cc2)C1(O)Cn1cncn1` (stereo not drawn) [Metconazole, metconazole] gave an Observed efficacy (Rhizoctonia solani; 0.004 ppm) of 26%, an Observed efficacy (Rhizoctonia solani; 0.016 ppm) of 62% and an Observed efficacy (Puccinia recondita) of 33%. The Observed efficacy (Septoria tritici; 0.016 ppm) was 19%.
In the case of `OC(Cc1ccccc1Cl)(Cn1nc[nH]c1=S)C1(Cl)CC1` (stereo not drawn) [Prothioconazole], the Observed efficacy (Rhizoctonia solani; 0.016 ppm) is reported as 11%, the Observed efficacy (Puccinia recondita) is reported as 0% and the Observed efficacy (Septoria tritici; 0.016 ppm) is reported as 5%.
